Test results as given in patent publication US11724980B2, “Quinones having high capacity retention for use as electrolytes in aqueous redox flow batteries” (President and Fellows of Harvard College, priority 2018, dated 2023).

Key:
[1] = Rotating disk electrode study with Levich analysis; assay type: physicochemical; conditions: 5 mM in 1 M KOH, Levich plot
Experimental: Glassy carbon was used as the working electrode for all three-electrode CV tests. RDE experiments were conducted using a Pine Instruments Modulated Speed Rotator AFMSRCE equipped with a 5 mm diameter glassy carbon working electrode, a Ag/AgCl reference electrode (BASi, pre-soaked in 3 M NaCl solution), and a graphite counter electrode. The electrode was rotated at a specific speed while the voltage was linearly swept from −0.4 to −0.11 V vs. Ag/AgCl (FIG. 4A). […]. RDE experiments were conducted using a Pine Instruments Modulated Speed Rotator AFMSRCE equipped with a 5 mm diameter glassy carbon working electrode, a Ag/AgCl reference electrode (BASi, pre-soaked in a 3 M KCl solution), and a graphite counter electrode. […]

[2] = CV simulation as two one-electron reductions; assay type: physicochemical; conditions: 5 mM in 1 M KOH
Experimental: FIG. 6. Capacitance-corrected CV of 5 mM 2,6-DBEAQ in 1 M KOH (solid grey line). The dashed red line represents the simulated total current arising from two successive one-electron reductions with reduction potentials of −0.517 and −0.511 V vs. SHE, according to the procedure outlined in a previous publication.^1 Each simulated reduction has a rate constant ko=7×10^−3 cm/s and α=0.5.
A first CV experiment was performed in which 2,6-DBEAQ was dissolved in pH 14 KOH solution at a concentration of 5 mM. CV measurements were plotted in FIG. 5A and include results for the isomers of 2,6-DBEAQ.
Following our previous study on 2,6-DHAQ^17 and literature reports^1,18 on quinone electrochemistry in the absence of proton donors, we simulated the CV of 2,6-DBEAQ as representing two reversible electron transfer steps at two different potentials E1 and E2. The separation between simulated redox potentials for the first (E1) and second (E2) electron reductions for 2,6-DBEAQ is considerably narrower than the corresponding peak separation for 2,6-DHAQ^17 (6 mV vs. 60 mV).
The pH dependence of the proton-coupled electron transfer (POET) redox reaction for a generalized anthraquinone (AQ) is often visualized by the nine-membered square scheme (FIG. 7). The horizontal direction indicates electron transfer (ET), and the vertical direction indicates proton transfer (PT or protonation). Under strongly alkaline conditions, where the pH is higher than the second pKa (pKa2) of the reduced AQ (AQ^2−), no protonation of the semiquinone anion will take place, and reduction proceeds via two ET steps, from AQ to a semiquinone (AQ-^●) at E1, and from AQ-^● to AQ^2− at E2 which is typically <E1. Depending on the value of E1-E2, the mechanism of AQ reduction in alkaline conditions can either be a concerted one-step, two-electron process or two single-electron processes. […]

[3] = Unbalanced compositionally-symmetric cell cycling
Experimental: As a direct probe of the effect of O-alkylation of anthraquinone on its chemical stability, 2,6-DBEAQ was cycled potentiostatically in a volumetrically unbalanced compositionally-symmetric cell configuration.
Potentiostatic symmetric cell cycling was performed according to a reported procedure^8 in order to assess the temporal chemical stability of DBEAQ, independent of any variations in apparent capacity as a result of changes to membrane resistance, and in a configuration where there is negligible water or reactant crossover due to the same DBEAQ concentration being used in both electrolytes. […] 5 mL of the resulting electrolyte was used as the capacity-limiting side of a volumetrically unbalanced compositionally-symmetric cell, while the remaining 10 mL was used as the non-capacity-limiting side, i.e., with twice the nominal capacity of the capacity-limiting side. […].
The cycling stability of the DPPEAQ electrolyte was also studied by a previously published symmetric cell method.^24 Although the oxidized form of DPPEAQ is readily soluble at pH 9, proton-coupled electron transfer raises the pH of the electrolyte when it is reduced. Such pH fluctuations can produce misleading results in symmetric cell testing unless the starting pH is above the cutoff point for proton-coupled electron transfer.

## O=C([O-])CCCOc1ccc2c(c1)C(=O)c1ccc(OCCCC(=O)[O-])cc1C2=O.[K+].[K+] [2,6-DBEAQ, 4,4′-((9,10-anthraquinone-2,6-diyl)dioxy)dibutyric acid]
[1]
  diffusion coefficient for the oxidized form: 1.58×10^−6 cm^2/s
[2]; α=0.5
  rate constant ko of each simulated reduction: 0.007 cm/s
[2]; simulated CV
  E1-E2 separation: 6 mV
[3]; pH 14 (1 M KOH), 0.10 M (2,6-DBEAQ also 0.65 M)
  temporal capacity fade rate: < 0.01 %/day
[3]; pH 14, 0.10 and 0.65 M
  temporal capacity fade rate: < 3.0 %/year
